Experimental data: patent US9417257B2, “System and method for collecting, storing, processing, transmitting and presenting very low amplitude signals” (Nativis, Inc., priority 2004, dated 2016)
Where a SMILES comes first, the peptide text is derived from it. [ ]: non-standard residue; d: D form. Nle = CCCC[C@H](N)C(=O)O

How the values were obtained:
[1] = test system: araC-PBAD promoter dependent expression of GFPuv; experiment: Induction of araC-PBAD GFPuv reporter in pBAD-GFPuv transformed JM109 bacteria, whole cell fluorescence; assay type: cell-based, E coli; conditions: MIDS = signal playback
Excerpt: The reporter system for sugar sensing was obtained from a commercial supplier. In this system, bacteria are transformed with a plasmid that consists of the gene for AraC, which acts as an activator of the ara operon, and the gene for a variant green florescent protein, under the control of the PBAD promoter. L-arabinose specifically binds to araC and rapidly turns on transcription in a time dependent fashion reaching a maximum expression level within 3 hr as monitored by intact whole cell fluorescence of the expressed GFP. GFPuv expression is linear with dose over two logs of concentration of L-arabinose (1-500 uM).
The inherent (MIDS) emission signals of L and D-arabinose are obtained as detailed above, employing a 0.1 mM solution of L(+) Ara or D(+) Ara for signal recording, and the autocorrelation/FFT method for identifying optimized time-domain signals.
Transduction experiments were performed with two sets of coils. In the first system, a pair of coils consisting of 30 gauge aluminum wire was wound around a 3″ tall section of PVC core with 2⅝″ o.d., wound to 35× the number of windings of starting coils. These were place inside aluminum Faraday boxes 5½×4″×8¾″ (W×H×D) to isolate samples for crossover RF signals. Both boxes were placed upon the orbital shaker platform to aerate transducing cultures.
In the second set of three 4″ tall stock 4000-ft spools of 28G insulated copper wired with 1″ i.d. plastic cores were directly used as transduction coils (“Mega coils”) and two coils were driven with the MIDS signals, while the third control coil was driven by a random white noise generator. In this case, all three coils were isolated in Faraday boxes, and mounted separated by 2 ft on a 6-ft plank that was fitted to the orbital shaker. This ensured that all three samples were agitated at the same speed with one shaker. Thermistor temperature probes were also place into the core of each coil proximal to the sample to provide real-time reading of temperature. Both sets of MIDS signal coils were driven at the highest input voltage setting until their temperature equilibrated near 94-97° F. from resistive heating of the wound wire. Samples were centered in the core of the coil to experience the maximum and most uniform area of RF flux. (a limitation of the current set-up was the linkage of heating with driving voltages which control RF flux).
In a typical experiment, 1-3 drops of overnight cultures of pBAD-GFPuv transformed JM109 grown in Luria broth containing 100-500 ug/ml of sodium ampicillin (LB/amp) were used to seed 50 ml fresh LB/amp. This was well mixed and 10 ml transferred to 25-ml Erlenmeyer flasks, and 0.1 ml of 100× stocks of reference chemical inducers (D or L arabinose) were added to final concentrations desired. These seeded cultures were placed into either the transduction coils, or left on the shaker platform as controls. (Another limitation of the current set up is the availability of only one shaker table, forcing a choice between incubation at controlled above ambient temperature to match the coils but without agitation, or agitation simply at ambient temperature. Also the matching of the coil temperatures varies about 2-3° F. and cannot be precisely controlled or determined). In most cases the transductions were conducted as overnight incubations.
After transduction was stopped, 1.2 ml of bacterial cell culture suspension were transferred to 1.7 ml microcentrifuge tubes and centrifuge 1-2 mins at 12,000 rpm (10,000×rcg). Supernatant broth was removed, discarded and the bacterial pellets re-suspended in 1 ml of ice-cold PBS. Washed suspensions were centrifuged again, PBS wash discarded, pellets re-suspended in fresh PBS, transferred to cuvettes to measure OD600 nm, then volumes were adjusted to match cell density among samples.
For each of the studies reported here, % Relative=[(Fluor. of L(+)ara MIDS)−(Fluor. of D(−)ara MIDS)]
Induction (Fluor. of D(−) ara MIDS).

[2] = test system: araC-PBAD promoter dependent expression of GFPuv; conditions: cited from earlier work
pea sprouts = experiment: Sugar pea sprout stem length, inhibition by herbicide; assay type: in vivo; conditions: 72 hour, 37° C., 100% humidity; FIG. 31
Description: The optimized inherent (MIDS) emission signals of glyphosphate were obtained as described in Sections II and III above, using system equipment and protocols as detailed in Examples 1 and 2 below. In one experiment, an optimized glyphosphate MIDS signal was applied to pea sprouts supported on a moist medium, with signal application over a 72 hour period at 37° C., 100% humidity. Various controls included (1) no signal, (2), the chemical Roundup®, and (3) a white noise signal. Stem length was measured within a hour after exposure to the stimulus, and 5-50 sprouts were contained in each group.

[3] = test system: MDA-MB-435 human breast tumor; experiment: MDA-MB-435 human breast tumor mouse xenograft; assay type: in vivo, athymic nude mice; conditions: day 36; outliers removed; taxol 15 mg/kg i.p. twice a wk; MIDS continuous playback
Description: Method: MIDS measurement was made in glass sample holders (Kimble autoinjector vials) on (1) neat solution of the preformulated taxol clinical vial, using a 1 ml tuberculin syringe, and 22G needle, to withdraw 0.7 ml from multidose vial (preserve sterility and integrity of solution, so don't syringe back in), then (2) this 0.7 ml taxol formulation will be used to dissolve additional 1 mg vials of taxol, to increase the amount of taxol relative to Cremophor®. The study was designed to evaluate the efficacy of a transduction technology to inhibit tumor growth in an in vivo human tumor mouse xenograft model, and to compare its effect to a standard chemotherapeutic treatment-taxol. 5 million MDA-MB-435 cells, in suspension, were subcutaneously injected into the flanks of athymic nude mice. Treatment began the same day of cell implant (Day 1). Animals were assigned to one of 4 groups. Each animal was monitored for tumor growth twice per week for the duration of the study. One group was treated with Taxol, Two groups were treated with transduction and one group was treated with the taxol vehicle to act as a control.
The mice were athymic nude mice nu/nu with a BALB/c background. Implanted with 5 million of breast cancer tumor line MDA-MB-435(NCI standard originally from the NCI) from American Culture Type Collection, ATCC (Rockville, Md.). […]

20S proteasome = target: T1, 20S proteasome (Homo sapiens, UniProt P28074); experiment: 20S proteasome assay, cleavage of Suc-Leu-Leu-Val-Tyr-AMC (fluorescence); assay type: biochemical
T1 construct: purchased EMD Biosciences 539158
Excerpt: The 20S proteasome enzyme is activated with a mild detergent (SDS). The cleavage of the substrate Suc-Leu-Leu-Val-Tyr-AMC by the activated enzyme liberates the fluorescent AMC molecules that can be monitored by exciting AMC at 380 nm and detecting the fluorescence at 460 nm. Proteosome activity is inhibited by phepropeptin D.
In a first study, the ability of phepropeptin D and a MIDS signal of phepropeptin D to inhibit proteosome activity, as measured by the appearance of conversion of the substrate Suc-Leu-Leu-Val-Tyr-AMC to yield a fluorescent signal were measured, following substantially the same methodology described above and in the examples.
The 20S Proteasome assay kit (EMD Biosciences Cat #539158) was adapted for use in a cuvette format with a final volume of 200 μl. Nine samples were set-up using the following procedure:
Reaction buffer (20×) was diluted, 100 μl with 880 μl of HPLC grade water and 20 μl of 100× activation buffer to a final volume of 1 ml.
100 μl of the diluted 2× reaction buffer was added to each of the no enzyme control tubes.
The 20S proteasome enzyme was added to the remaining solution, 3.2 μl to 800 μl of 2× reaction buffer and 100 μl added to each of 7 remaining tubes.
To each tube 100 μl of water or water and inhibitor were added.
In a separate tube 4 μl of the substrate was diluted with 96 μl of HPLC grade water and 10 μl/tube of the diluted substrate was added to each of the reaction tubes to obtain a final volume of 200 μl.
Samples were all mixed by repeated pipetting and the reactions incubated at 37 C for 2 hrs.
Fluorescence was quantiated and recorded using a fluorometer (Turner Designs, Sunnyvale, Calif.—Model TD-700).
In a follow-up study, samples were allowed to incubate at room temperature overnight to determine if the substrate would continue to be converted to the fluorescent product. […]

[4] = Experiment 1, OD-matched cells, L(+) Ara 0.2 mM, D(−) Ara 1 mM
[5] = Experiment 2, L(+) ara 0.25 mM, D(−) ara 1 mM

Structure (SMILES) | Fluorescence Average rfu [1, 4] [rfu] | Fluorescence rfu1 [1, 4] [rfu] | Fluorescence rfu2 [1, 4] [rfu] | Fluorescence rfu3 [1, 4] [rfu] | Fluorescence Average rfu [1, 5] [rfu] | Fluorescence rfu1 [1, 5] [rfu] | Fluorescence rfu2 [1, 5] [rfu] | Fluorescence rfu3 [1, 5] [rfu] | other results
O=C[C@@H](O)[C@H](O)[C@H](O)CO [D(−) Ara, D(−)-arabinose] | 297.7 | 297.6 | 297.8 | 297.7 | 226.5 | 226.7 | 226.7 | 226.1 | binding of araC and activation of genes downstream of the PBAD promoter (in words) ([2]; even at 1000-fold higher concentration than L-arabinose): does not bind araC, nor activate expression of genes downstream of the PBAD promoter
O=C(O)CNCP(=O)(O)O [glyphosphate, N-phosphonomethylglycine] | – | – | – | – | – | – | – | – | stem growth (in words) (pea sprouts): effective in substabtially inhibited stem growth
CC(=O)O[C@H]1C(=O)[C@@]2(C)[C@H]([C@H](OC(=O)c3ccccc3)[C@]3(O)C[C@H](OC(=O)[C@H](O)[C@@H](NC(=O)c4ccccc4)c4ccccc4)C(C)=C1C3(C)C)[C@]1(OC(C)=O)CO[C@@H]1C[C@@H]2O [taxol] | – | – | – | – | – | – | – | – | tumor growth inhibition [3]: 43%
CCCC[C@@H](C=O)NC(=O)[C@H](CC(C)C)NC(=O)[C@H](CC(C)C)NC(C)=O [ALLN] (Ac-Leu-Leu-[Nle]-aldehyde) | – | – | – | – | – | – | – | – | Fluorescence relative to positive control sample #2 set to 700 (20S proteasome; 37 C, 2 hrs, MIDS 60 mG AC field): 25.83; % Normalized Fluorescence (20S proteasome; 1 hr 30 min): 4.975%; % Normalized Fluorescence (20S proteasome; 20 hrs post, room temperature overnight, removed from the field): 2.646%
O=C[C@H](O)[C@@H](O)[C@@H](O)CO [L(+) Ara, L(+)-arabinose] | 833.5 | 835.0 | 832.7 | 832.7 | 939.7 | 940.0 | 939.4 | 939.7 | concentration range over which GFPuv expression is linear with dose [2]: 1 to 500 µM; potency [2]: 100 µM; time to maximum expression level of GFP ([2]; whole cell fluorescence): ≤ 3 h
